How the values were obtained:
human PDE4D isozyme = human PDE4D isozyme (Homo sapiens, UniProt Q08499); assay: IC50 for human PDE4D isozyme (Table 4); type: biochemical; conditions: read-out: IC50 for human PDE4D isozyme, hPDE4D
Protocol: (§1) In-vitro assay for PDE4 enzymes. The in-vitro activity of PDE4 enzymes and the in-vitro potency of therapeutic agents described in the present invention was measured using a real-time, enzyme-coupled spectrophotometric assay. By using three different coupling enzymes, the product of the PDE4 reaction is coupled to the oxidation of the reduced form β-nicotinamide adenine dinucleotide (NADH), which dissipation can be monitored spectrophotmetrically at […]. Assay description. Buffer A containing 50 mM Tris, pH 8.0, 16 mM MgCl2 and 80 mM KCl is prepared and stored at room temperature. Buffer B containing 50 mM Tris, pH 8.0 is prepared and stored at toom temperature. Stock solutions of the following reagents are prepared in Buffer B and stored at −20° C.: Adenosine-5′-triphosphate (ATP), cyclic adenosine-5′-monophosphate (cAMP), phosphoenolpyruvate (PEP) and NADH. An assay mix is prepared by mixing Buffer A, […] (TCEP), ATP, PEP, NADH, myokinase (MK), pyruvate kinase (PK), lactate dehydroganese (LDH) and PDE4 to a final volume of 20 mL, which is enough for a single 96-well assay plate. Assay mix (180 μL) and test article (10 μL) in 1:1 DMSO/H2O mixture is pre-incubated at room temperature for 10 min. The enzymatic reaction is initiated by addition of cAMP (10 μL). Final concentration of all components in the assay (200 μL/well) are as follows: 10 mM MgCl2, 50 mM KCl, 5 mM TCEP, 2.5% DMSO, 0.4 mM NADH, 1 mM PEP, 0.04 mM ATP, 5 units MK, 1 unit PK, 1 unit LDH and appropriate amount of PDE4. Reaction progress curves are monitored in a plate reader capable of measuring light absorbance at 340 nm. A decrease in light absorbance at 340 nm is due to oxidation of NADH. Positive controls containing no test article and negative controls containing no test article and no cAMP are included on every assay plate. Reaction rates are determined from the slopes of the linear portions of the progress curves. All data is percent normalized with respect to controls and presented as percent inhibition.

human PDE4B isozyme = human PDE4B isozyme (Homo sapiens, UniProt Q07343); assay: IC50 for human PDE4B isozyme (Table 5); type: biochemical; conditions: read-out: IC50 for human PDE4B isozyme, hPDE4B
human PDE4B isozyme, sequence (Q07343 whole entry): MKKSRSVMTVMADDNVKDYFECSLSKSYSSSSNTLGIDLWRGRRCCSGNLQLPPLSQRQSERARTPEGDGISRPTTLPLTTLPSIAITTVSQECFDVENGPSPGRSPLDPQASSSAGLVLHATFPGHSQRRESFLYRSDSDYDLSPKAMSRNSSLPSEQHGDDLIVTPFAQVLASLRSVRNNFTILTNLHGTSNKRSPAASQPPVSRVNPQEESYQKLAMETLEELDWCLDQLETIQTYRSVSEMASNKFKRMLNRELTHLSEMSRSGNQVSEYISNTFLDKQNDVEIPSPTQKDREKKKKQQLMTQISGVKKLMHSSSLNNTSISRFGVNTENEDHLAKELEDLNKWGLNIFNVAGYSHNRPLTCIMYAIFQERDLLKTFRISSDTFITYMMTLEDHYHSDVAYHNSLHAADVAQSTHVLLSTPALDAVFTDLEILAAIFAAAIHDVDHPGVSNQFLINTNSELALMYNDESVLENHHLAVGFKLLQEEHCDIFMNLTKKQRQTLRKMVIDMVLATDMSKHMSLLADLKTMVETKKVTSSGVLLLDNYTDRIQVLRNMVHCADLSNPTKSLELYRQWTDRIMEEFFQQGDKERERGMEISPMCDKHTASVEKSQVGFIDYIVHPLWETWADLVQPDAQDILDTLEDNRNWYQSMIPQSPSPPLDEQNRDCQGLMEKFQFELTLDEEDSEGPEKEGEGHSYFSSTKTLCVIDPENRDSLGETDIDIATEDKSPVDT
Protocol: as §1

human PDE4D isozyme, sequence (Q08499 whole entry): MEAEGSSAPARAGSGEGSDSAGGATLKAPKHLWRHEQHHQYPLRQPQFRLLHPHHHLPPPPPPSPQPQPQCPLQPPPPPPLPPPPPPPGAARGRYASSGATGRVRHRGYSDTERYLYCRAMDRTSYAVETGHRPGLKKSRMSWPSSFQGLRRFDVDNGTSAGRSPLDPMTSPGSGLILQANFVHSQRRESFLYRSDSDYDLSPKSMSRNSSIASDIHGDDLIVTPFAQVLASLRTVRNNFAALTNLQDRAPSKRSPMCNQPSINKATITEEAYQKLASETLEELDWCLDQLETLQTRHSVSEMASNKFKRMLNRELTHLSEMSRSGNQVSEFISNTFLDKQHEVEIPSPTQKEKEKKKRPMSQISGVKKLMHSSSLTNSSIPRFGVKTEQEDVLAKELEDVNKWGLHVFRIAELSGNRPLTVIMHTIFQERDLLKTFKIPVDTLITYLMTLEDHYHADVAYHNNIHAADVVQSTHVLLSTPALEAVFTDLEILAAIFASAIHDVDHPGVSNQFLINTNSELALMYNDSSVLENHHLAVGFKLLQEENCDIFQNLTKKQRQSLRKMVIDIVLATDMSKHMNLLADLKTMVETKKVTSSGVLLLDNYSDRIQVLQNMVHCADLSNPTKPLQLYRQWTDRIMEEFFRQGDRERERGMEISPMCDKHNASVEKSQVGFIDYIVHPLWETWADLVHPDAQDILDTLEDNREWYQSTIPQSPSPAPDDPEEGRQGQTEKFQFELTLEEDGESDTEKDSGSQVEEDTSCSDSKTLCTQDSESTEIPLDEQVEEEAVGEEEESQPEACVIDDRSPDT

| SMILES | IC50 (human PDE4D isozyme) [µM] | IC50 (human PDE4B isozyme) [µM] |
| --- | --- | --- |
| CS(=O)(=O)Nc1ccc(Cc2cc3sc(N)nc3c(-c3cccc(Cl)c3)c2F)cc1 [BA-19, N-{4-[2-amino-4-(3-chloro-phenyl)-5-fluoro-benzothiazol-6-ylmethyl]-phenyl}-methanesulfonamide] | < 5 | 5 to 20 |
| CN(C)c1ccc(Cc2cc(-c3cccc(Cl)c3)c3ncsc3c2)cn1 [BA-58, {5-[4-(3-chloro-phenyl)-benzothiazol-6-ylmethyl]-pyridin-2-yl}-dimethyl-amine] | < 5 | < 5 |
| CSc1cccc(-c2cc(Cn3cccn3)cc3sc(N)nc23)c1 [BA-14, 4-(3-Methylsulfanyl-phenyl)-6-pyrazol-1-ylmethyl-benzothiazol-2-ylamine] | < 5 | < 5 |
| Nc1ccc(Cc2cc3sc(N)nc3c(-c3cccc([N+](=O)[O-])c3)c2O)cc1 [BA-15, 2-Amino-6-(4-amino-benzyl)-4-(3-nitro-phenyl)-benzothiazol-5-ol] | < 5 | < 5 |
| Nc1ccc(Cc2cc3scnc3c(-c3cccc(Cl)c3)c2F)cn1 [BA-63, 5-[4-(3-chloro-phenyl)-5-fluoro-benzothiazol-6-ylmethyl]-pyridin-2-ylamine] | < 5 | < 5 |
| Cc1nc2c(-c3cccc(Cl)c3)cc(Cc3ccc(N)nc3)cc2s1 [BA-66, 5-[4-(3-chloro-phenyl)-2-methyl-benzothiazol-6-ylmethyl]-pyridin-2-ylamine] | < 5 | – |
| Nc1nc2c(-c3cccc([N+](=O)[O-])c3)cc(Cc3ccc(F)cc3)cc2s1 [BA-01, 6-(4-fluorobenzyl)-4-(3-nitrophenyl)-benzothiazol-2-yl amine] | < 5 | < 5 |
| Nc1ccc(Cc2cc3scnc3c(-c3cccc(Cl)c3)c2F)cc1 [BA-23, 4-[4-(3-chloro-phenyl)-5-fluoro-benzothiazol-6-ylmethyl]-phenylamine] | < 5 | < 5 |
| CS(=O)(=O)Nc1ccc(Cc2cc(-c3cccc(Cl)c3)c3nc(N)sc3c2)cc1 [BA-18, N-{4-[2-Amino-4-(3-chloro-phenyl)-benzothiazol-6-ylmethyl]-phenyl}-methanesulfonamide] | < 5 | 5 to 20 |
| Nc1nc2c(-c3cccc(C(F)(F)F)c3)cc(Cc3ccc(F)cc3)cc2s1 [BA-07, 6-(4-Fluoro-benzyl)-4-(3-trifluoromethyl-phenyl)-benzothiazol-2-ylamine] | < 5 | < 5 |
| COc1ccc(Cc2cc3scnc3c(-c3cccc(Cl)c3)c2F)cn1 [BA-38, 4-(3-chloro-phenyl)-5-fluoro-6-(6-methoxy-pyridin-3-ylmethyl)-benzothiazole] | < 5 | < 5 |
| Fc1c(Cc2ccc(N3CCC3)nc2)cc2scnc2c1-c1cccc(Cl)c1 [BA-61, 6-(6-azetidin-1-yl-pyridin-3-ylmethyl)-4-(3-chloro-phenyl)-5-fluoro-benzothiazole] | < 5 | < 5 |
| Cn1nccc1Cc1cc(-c2ccc3c(c2)OCO3)c2nc(N)sc2c1 [BA-08, 4-Benzo[1,3]dioxol-5-yl-6-(2-methyl-2H-pyrazol-3-ylmethyl)-benzothiazol-2-ylamine] | < 5 | < 5 |
| NC(=O)N1CCN(Cc2cc3scnc3c(-c3cccc(Cl)c3)c2F)CC1 [BA-31, 4-[4-(3-Chloro-phenyl)-5-fluoro-benzothiazol-6-ylmethyl]-piperazine-1-carboxylic acid amide] | < 5 | < 5 |
| Fc1c(Cc2ccc(N3CCCC3)nc2)cc2scnc2c1-c1cccc(Cl)c1 [BA-57, 4-(3-chloro-phenyl)-5-fluoro-6-(6-pyrrolidin-1-yl-pyridin-3-ylmethyl)-benzothiazole] | < 5 | – |
| CC(=O)N1CCN(Cc2cc3scnc3c(-c3cccc(Cl)c3)c2F)CC1 [BA-44, 1-{4-[4-(3-Chloro-phenyl)-5-fluoro-benzothiazol-6-ylmethyl]-piperazin-1-yl}-ethanone] | < 5 | 5 to 20 |
| Cc1nc2c(-c3cccc(Cl)c3)cc(Cc3ccc(N)cc3)cc2o1 [BA-22, 4-{[4-(3-chlorophenyl)-2-methyl-1,3-benzoxazol-6-yl]methyl}aniline] | < 5 | < 5 |
| Fc1c(CN2CCNCC2)cc2scnc2c1-c1cccc(Cl)c1 [BA-48, 4-(3-Chloro-phenyl)-5-fluoro-6-piperazin-1-ylmethyl-benzothiazole] | < 5 | 5 to 20 |

| SMILES | IC50 (human PDE4D isozyme) [µM] | IC50 (human PDE4B isozyme) [µM] |
| --- | --- | --- |
| Clc1cccc(-c2cc(Cc3ccc(N4CCCC4)nc3)cc3scnc23)c1 [BA-59, 4-(3-chloro-phenyl)-6-(6-pyrrolidin-1-yl-pyridin-3-ylmethyl)-benzothiazole] | < 5 | 20 to 40 |
| CCNC(=O)Nc1ccc(Cc2cc3scnc3c(-c3cccc(Cl)c3)c2F)cn1 [BA-33, 1-[5-[4-(3-chloro-phenyl)-5-fluoro-benzothiazol-6-ylmethyl]-pyridin-2-yl]-3-ethyl-urea] | < 5 | < 5 |
| NC(=O)Nc1ccc(Cc2cc(-c3cccc(Cl)c3)c3nc(N)sc3c2)cc1 [BA-27, {4-[2-Amino-4-(3-chloro-phenyl)-benzothiazol-6-ylmethyl]-phenyl}-urea] | < 5 | < 5 |
| CN(C)CC(=O)Nc1ccc(Cc2cc3scnc3c(-c3cccc(Cl)c3)c2F)cn1 [BA-64, N-{5-[4-(3-chloro-phenyl)-5-fluoro-benzothiazol-6-ylmethyl]-pyridin-2-yl}-2-dimethylamino-acetamide] | < 5 | < 5 |
| NC(=O)[C@H]1CCN1c1ccc(Cc2cc3scnc3c(-c3cccc(Cl)c3)c2F)cn1 [BA-75, (R)-1-{5-[4-(3-chloro-phenyl)-5-fluoro-benzothiazol-6-ylmethyl]-pyridin-2-yl}-azetidine-2-carboxylic acid amide] | < 5 | < 5 |
| O=C1CN(Cc2cc3scnc3c(-c3cccc(Cl)c3)c2F)CCN1 [BA-71, 4-[4-(3-Chloro-phenyl)-5-fluoro-benzothiazol-6-ylmethyl]-piperazin-2-one] | < 5 | < 5 |
| Nc1nc2c(-c3ccc4c(c3)OCO4)cc(Cn3cccn3)cc2s1 [BA-09, 4-Benzo[1,3]dioxol-5-yl-6-pyrazol-1-ylmethyl-benzothiazol-2-ylamine] | < 5 | < 5 |
| Nc1ccc(Cc2cc(-c3cccc(Cl)c3)c3nc(N)sc3c2)cc1 [BA-26, 6-(4-Amino-benzyl)-4-(3-chloro-phenyl)-benzothiazol-2-ylamine] | < 5 | < 5 |
| Nc1ccc(Cc2cc3sc(N)nc3c(-c3cccc(Cl)c3)c2F)cc1 [BA-16, 6-(4-amino-benzyl)-4-(3-chloro-phenyl)-5-fluoro-benzothiazol-2-ylamine] | < 5 | < 5 |
| CCNC(=O)Nc1ccc(Cc2cc3sc(N)nc3c(-c3cccc(Cl)c3)c2F)cc1 [BA-29, 1-{4-[2-Amino-4-(3-chloro-phenyl)-5-fluoro-benzothiazol-6-ylmethyl]-phenyl}-3-ethyl-urea] | < 5 | < 5 |
| Cc1nc2c(-c3cccc(Cl)c3)cc(Cc3ccc(NC(N)=O)cc3)cc2o1 [BA-24, N-(4-{[4-(3-chlorophenyl)-2-methyl-1,3-benzoxazol-6-yl]methyl}phenyl)urea] | < 5 | < 5 |
| O=C1CNCCN1Cc1cc2scnc2c(-c2cccc(Cl)c2)c1F [BA-73, 1-[4-(3-Chloro-phenyl)-5-fluoro-benzothiazol-6-ylmethyl]-piperazin-2-one] | < 5 | < 5 |
| CCOC(=O)Nc1ccc(Cc2cc3scnc3c(-c3cccc(Cl)c3)c2F)cn1 [BA-40, {5-[4-(3-chloro-phenyl)-5-fluoro-benzothiazol-6-ylmethyl]-pyridin-2-yl}-carbamic acid ethyl ester] | < 5 | < 5 |
| Nc1nc2c(-c3ccc4c(c3)OCO4)cc(Cc3ccc(F)cc3)cc2s1 [BA-04, 4-Benzo[1,3]dioxol-5-yl-6-(4-fluoro-benzyl)-benzothiazol-2-ylamine] | < 5 | < 5 |
| CC(=O)c1cccc(-c2cc(Cn3cccn3)cc3sc(N)nc23)c1 [BA-12, 1-[3-(2-Amino-6-pyrazol-1-ylmethyl-benzothiazol-4-yl)-phenyl]-ethanone] | < 5 | < 5 |
| Nc1nc2c(-c3cccc(Br)c3)cc(Cc3ccc(F)cc3)cc2s1 [BA-13, 4-(3-bromophenyl)-6-(4-fluorobenzyl)-1,3-benzothiazol-2-amine] | < 5 | < 5 |
| CN1CCN(Cc2cc3scnc3c(-c3cccc(Cl)c3)c2F)CC1 [BA-50, 4-(3-Chloro-phenyl)-5-fluoro-6-(4-methyl-piperazin-1-ylmethyl)-benzothiazole] | < 5 | – |
